Assay results as given in patent US7071231B2, “Naphthalene ureas as glucose uptake enhancers” (Telik, Inc., priority 1999, dated 2006).
Where a name gives a salt, the structure may show the parent alone.

Experiments:
[1] = molecular target: T1, β-kinase domain of the human insulin receptor (CKD) (Homo sapiens, UniProt P06213); experiment: 32P-cytoplasmic kinase domain (CKD) autophosphorylation assay; format: biochemical; conditions: phosphorylation of CKD expressed as % of the vehicle level; 10 minutes at room temperature; compound concentration not given
T1 construct: The complete β-kinase domain of the human insulin receptor (CKD) was expressed in, and purified from, baculovirus; made in house
Experimental: ^32P-cytoplasmic Kinase Domain (CKD) Autophosphorylation Assay The insulin signaling pathway is activated through stimulation of the insulin receptor. A major component of this activation is the phosphorylation of a specific portion of the receptor called the β-kinase domain. The complete β-kinase domain of the human insulin receptor (CKD) was expressed in, and purified from, baculovirus. CKD (4.0μg/ml), in a solution of 29 mM HEPES (pH 7.6), 0.05% Triton X-100, 10 mM MgCl2, 2 mM MnCl2 (50 μl final volume), was combined with 50 μM ATP, and 5 μCi ^32P-ATP (3000Ci/mmol.). A test compound, or the vehicle (dimethyl sulfoxide (DMSO)) was added to a final DMSO concentration of 1%. The mixture was incubated for 10 minutes at room temperature. The reaction was terminated by the addition of 10 μl 200 mM EDTA. A 30 μl volume was removed, mixed with 5 μl of 6× Laemmeli sodium dodecyl sulfate (SDS) treatment buffer, and heated to 94° C. for 5 minutes. A 20 μl aliquot was then run an SDS-PAGE gel. The radioactivity incorporated into the CKD band was quantified by phosphorimaging of the gel, or scintillation counting of the excised bands. The potency of a compound for increasing phosphorylation was expressed as % of the vehicle level.

3T3 L1 fibroblasts = experiment: Glucose transport activity assay (14C-2-deoxy-D-glucose uptake); format: cell-based; conditions: Mus musculus, 3T3-L1, read-out: Concentration (μM) to reach >150% activity of vehicle control
How it was run: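 Differentiated 3T3 L1 adipocytes (IBMX/dexamethasone/insulin induction), serum-starved overnight, preincubated 30 min at 37 °C with compound ± insulin in pH 7.4 salt buffer, then 30 min with 5 μCi/ml 14C-2-deoxy-D-glucose. Lysate radioactivity counted; EC = concentration raising uptake above 150% of vehicle control.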

[2] = system: Escherichia coli strain WP2uvrA; experiment: Ames test, Escherichia coli strain; conditions: 50 to 5000 μg/plate, without and with induced rat liver S-9 plus cofactors
[3] = system: Salmonella typhimurium strains, TA100, TA1535, and TA1537; experiment: Ames test, Salmonella typhimurium strains; conditions: 50 to 5000 μg/plate, without and with induced rat liver S-9 plus cofactors
3T3 L1 adipocytes = experiment: Effect of Wortmannin and Cytochalasin on glucose uptake; format: cell-based; conditions: Cytochalasin B 10 μM; stimulation by Compound 15 alone or Compound 15 plus 5.6 nM insulin
Experimental: Effect of Wortmannin and Cytochalasin on Glucose Uptake:
The glucose transport pathway stimulated by insulin involves activation of PI3 Kinase. Wortmannin is a selective inhibitor of PI3 Kinase and inhibits insulin-stimulated glucose transport. 3T3 L1 adipocytes were pretreated with 100 nM Wortmannin and stimulated with the compounds in the presence or absence of insulin. […] Insulin-stimulated glucose transport is mediated by glucose transporter proteins. Cytochalasin B is an inhibitor of glucose transporters and inhibits insulin-stimulated glucose uptake.

T1 sequence (P06213 980-1382 limits assumed): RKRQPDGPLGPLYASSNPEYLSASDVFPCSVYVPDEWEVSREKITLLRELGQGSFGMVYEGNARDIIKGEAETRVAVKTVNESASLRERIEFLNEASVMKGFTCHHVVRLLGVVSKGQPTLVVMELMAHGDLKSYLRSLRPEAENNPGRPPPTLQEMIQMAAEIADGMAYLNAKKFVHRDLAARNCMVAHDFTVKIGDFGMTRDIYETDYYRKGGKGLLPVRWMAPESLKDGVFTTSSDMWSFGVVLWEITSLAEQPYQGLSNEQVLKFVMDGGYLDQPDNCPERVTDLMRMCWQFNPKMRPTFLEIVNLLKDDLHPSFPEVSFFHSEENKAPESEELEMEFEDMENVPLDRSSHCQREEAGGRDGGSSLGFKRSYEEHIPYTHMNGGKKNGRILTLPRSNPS

SMILES | % Activity vs. Control [1] | EC (150% of vehicle control) (3T3 L1 fibroblasts) | mutagenicity (revertant colonies), tryptophan operon [2] | mutagenicity (revertant colonies), histidine operon [3] | effect on stimulation of glucose transport (3T3 L1 adipocytes)
O=C(Nc1ccc2c(O)cc(S(=O)(=O)O)cc2c1)Nc1ccc2c(O)cc(S(=O)(=O)O)cc2c1 [Compound 4, 4-hydroxy-7-{[(5-hydroxy-7-sulfo(2-naphthyl))amino]carbonylamino}naphthalene-2-sulfonic acid disodium salt] | 152% | 32 µM | negative | negative | –
C=C1[C@@H](C)[C@H]2[C@H](Cc3ccccc3)NC(=O)[C@]23OC(=O)/C=C/[C@H](O)CCC[C@@H](C)C/C=C/[C@H]3[C@@H]1O [Cytochalasin B] | – | – | – | – | inhibited the stimulation of glucose transport
